Measurements taken from US12396992B2, “Organic compounds” (INTRA-CELLULAR THERAPIES, INC., priority 2019, dated 2025).
pIC50, pKi: −log10 of the molar value. Entries after “also recorded” stand apart in the source; their conditions may differ. Each block holds one molecule with its values, some of them ahead of it.

Columns and labels:
BV2 cells [1] = assay: Quantitative PCR of inflammatory cytokine mRNA in LPS-stimulated BV2 cells; format: cell-based, mouse; conditions: LPS 10 microgram/ml, Compound 214 10 microgram/ml, FIG. 2
BV2 cells [2] = assay: as above; format: cell-based, mouse; conditions: for LPS-induced expression of Ccl2 / LPS-induced expression of IL1β / LPS-induced expression of TNFα: FIG. 3a; for Chemokine (C—C) motif Ligand 2 expression / Interleukin 1 beta expression / Tumor necrosis factor expression: BV2 + LPS, Q-PCR, initial results
Procedure: Levels of IL1 are measured using quantitative PCR of IL1β mRNA. IL1β is considered a marker of inflammation. Results are depicted in FIG. 2 (RQ: relative quantification of changes in gene expression in treated versus control samples; ***p<0.01 vs control, √p<0.01 vs LPS alone; ANOVA with Newman-Keuls post-hoc test).
BV2 cells are pretreated with compound, ITI-214 or rolipram, a PDE4 inhibitor, then stimulated with 50 ng/ml LPS for 4 hours. Expression levels of TNF, IL1β, Ccl2, and IL6 are measured. Normalized mRNA levels are shown as change from vehicle (ΔΔCt) and compared using a one-way ANOVA. […] The mRNA transcripts for TNF, IL1β, and Ccl2—three of the four cytokines studied in vivo—were elevated in BV2 cells treated with 50 ng/ml LPS.
(§1) The test compound is added first, the LPS is added one hour later, and the cells and/or media are harvested at five hours from commencement of the experiment.
Cells: BV2 mouse microglial cell line (ICLC, Italy) grown in 2% or 10% heat-inactivated FBS.
(§2) RTqPCR: RNA from BV2 cells purified using RNeasyKit (Qiagen) and from mouse tissue using TRIzol (Ambion). TaqMan primer-probe assays from Thermo Fisher. mRNA levels for all conditions are normalized to GAPDH and to vehicle control (ΔΔCt). Data are analyzed statistically using one-way ANOVA with the Bonferroni post-test for multiple comparisons.

BV2 cells [3] = assay: cAMP (ELISA) and P-VASP S157 (Western blot) in BV2 cells with ADP; format: cell-based, mouse; conditions: for P-VASP level at baseline / cAMP level at baseline: no ADP stimulation
Procedure: Cell lysates on a Western were blotted with an antibody to phosphorylated VASP at S157, and the intensity of the resulting bands were measured (as raw signal). […] There was no effect of PDE1 inhibition at baseline, consistent with the hypothesis that PDE1 is important under conditions of stimulation. […] As with cAMP, PDE1 activity (sensitive to ITI-214) appears to contribute about 50% to the total PDE activity (sensitive to IBMX) under conditions of stimulation while having no contribution at baseline. The dose dependent nature of the increase in cAMP is illustrated in FIG. 9.

mouse striatum [4] = assay: LPS-induced inflammatory gene expression in mouse striatum (Q-PCR); format: in vivo
Procedure: as §2
Data from yet another experiment measuring the effect of PDE1 inhibition on inflammatory gene expression in mouse striatum is depicted in FIG. 6. […] Striatal tissue is analyzed for mRNA levels of TNF, IL1β, Ccl2, and IL6. Expression levels are shown as change in Q-PCR signal from vehicle (ΔΔCt) and compared using an ANOVA. * p<0.05, **p<0.01, ***p<0.001.
The Applicants measure mRNA levels of four common inflammatory markers (TNF, IL1β, Ccl2, and IL6) using quantitative PCR (FIG. 7).

BV2 cells [5] = assay: ADP-induced chemotaxis of BV2 cells in Boyden chamber; format: cell-based, mouse; conditions: 100 μM ADP, 4 hrs
Procedure: Chemotaxis towards 100 μM ADP was measured in a Boyden chamber system for 4 hrs against a vehicle control. BV2 cells were added to the upper chamber of a 5 μm pore Boyden chamber with 100 μM ADP or vehicle in the lower chamber and incubated at 37′C with 5% CO2 for 4 hours. The curve was fit to a 4-parameter logarithmic equation with the following constraints: top >80% and bottom <20%. […] As shown in the left panel of FIG. 7A, raw fluorescence counts (relative fluorescence units or RFU), representing the cell count in the lower chamber, were used to calculate control conditions. The Vehicle condition represents the minimum migration, in which there was no ADP present. The maximum migration was shown as the 100 μM ADP condition.
The measured potency correlates with documented IC50 values.

mouse striatum [6] = assay: LPS-induced inflammatory gene expression in mouse striatum (Q-PCR); format: in vivo; conditions: initial results
[7] = tested on: primary cultured microglia; assay: VASP phosphorylation in primary cultured rat microglia; format: cell-based; conditions: 1 μM
Procedure: The above results were replicated in primary cultured microglia isolated from P2 rat whole brain (FIG. 10). Microglia were grown in culture for 12 days in serum-free media containing TGFb2, IL34, and cholesterol. The cells maintained properties in culture consistent with quiescent microglial-like cells, staining positive for Iba1 and maintaining a branched morphology.

BV2 cells [8] = assay: LPS-induced TNFα release from BV2 cells (ELISA); format: cell-based, mouse; conditions: 50 ng/ml LPS stimulation, FIG. 4
Procedure: TNFα release: TNFα levels are measured in BV2 conditioned media and normalized to cell protein levels. Inhibition of LPS-induced TNFα release from BV2 cells is depicted in FIG. 4.
as §1
TNFα ELISA: Thermo Fisher mouse TNFα colorimetric, sandwich ELISA kit. Interpolate values from standard curve. Dose response is fit to a 4-parameter logistic curve.

[9] = tested on: CT26 colorectal carcinoma cells; assay: CT26 colorectal carcinoma engrafted subcutaneously in mice; format: in vivo, mouse; conditions: for number of macrophages (CD45 positive) in the tumor microenvironment: 50 mg/kg, i.p., once daily
Procedure: Mice were engrafted subcutaneously with CT26 colorectal carcinoma cells. Control mice were administered 150 μg IgG (Isotype).

P2Y12 = P2Y12 (Homo sapiens, UniProt Q9H244); conditions: P2Y12 inhibitors; read-out: documented IC50; cited from earlier work
bovine brain PDE1 = molecular target: T1, bovine brain PDE1 (Bos taurus, UniProt Q01061); assay: IMAP phosphodiesterase assay, PDE1; format: biochemical
T1 construct: IC50; other: bovine brain PDE1; Ki; other: bovine brain PDE1 assay
Text: Briefly, the IMAP reagent binds with high affinity to the free 5′-phosphate that is found in GMP-fluorescein and not in cGMP-fluorescein. The resulting GMP-fluorescein-IMAP complex is large relative to cGMP-fluorescein. Small fluorophores that are bound up in a large, slowly tumbling, complex can be distinguished from unbound fluorophores, because the photons emitted as they fluoresce retain the same polarity as the photons used to excite the fluorescence.
The PDE1 enzyme is reconstituted with 50% glycerol to 2.5 U/ml. […] The compounds are mixed and pre-incubated with the enzyme for 10 min at room temperature.
The reaction is incubated in dark at room temperature for 15 min.

HL60 cells = assay: cGMP levels in PMA-differentiated HL60 cells with ANP and ionomycin (competitive ELISA); format: cell-based, human
Procedure: We have shown that there is a synergistic effect between ANP and PDE1 inhibition. An immortalized human pro-myeloid cell line (HL60 from ATCC) is grown, differentiated and harvested as described in Bender, A T, and Beavo, J A, 2006, PNAS 103, 460-465. The cells are grown in HEPES buffered RPMI 1640 medium with penicillin, streptomycin, and 10% fetal bovine serum. Phorbol-12-myristate-13-acetate (PMA), at 100 nM for 3 days, is used to differentiate the HL60 cells into macrophage-like cells. Following differentiation, the cells are incubated with a PDE1 inhibitor or vehicle (DMSO) beginning at time 0. At 40 minutes, 5 μM ionomycin (a calcium ionophore) is added. At 50 minutes, 100 nM ANP was added. At 60 minutes, the cells are harvested. Total cGMP levels are measured using a competitive ELISA (Bender and Beavo, 2006).
[drawing 33] is tested for its effect on cGMP levels in this system. […] In addition, the cGMP level attained by co-treatment with ANP and the PDE1 inhibitor is much greater than that obtained by co-treatment with ANP and a mixed PDE1/PDE5 inhibitor, SCH 51866 (used at 5 μM). In this experiment, the calcium ionophore ionomycin (used at 5 μM) is used to raise the intracellular calcium level and to counteract the cGMP rise induced by ANP.

[10] = 10 μM, 50 ng/ml LPS for 4 hours, FIG. 3b
[11] = 10 mg/kg i.p., 500 μg/kg LPS s.c., 2 hours
[12] = 10 mg/kg i.p., 500 μg/kg LPS s.c., 2 hours, does not reach significance
[13] = Striatum Mouse + LPS, Q-PCR, initial results

T1 sequence (Q01061 whole entry): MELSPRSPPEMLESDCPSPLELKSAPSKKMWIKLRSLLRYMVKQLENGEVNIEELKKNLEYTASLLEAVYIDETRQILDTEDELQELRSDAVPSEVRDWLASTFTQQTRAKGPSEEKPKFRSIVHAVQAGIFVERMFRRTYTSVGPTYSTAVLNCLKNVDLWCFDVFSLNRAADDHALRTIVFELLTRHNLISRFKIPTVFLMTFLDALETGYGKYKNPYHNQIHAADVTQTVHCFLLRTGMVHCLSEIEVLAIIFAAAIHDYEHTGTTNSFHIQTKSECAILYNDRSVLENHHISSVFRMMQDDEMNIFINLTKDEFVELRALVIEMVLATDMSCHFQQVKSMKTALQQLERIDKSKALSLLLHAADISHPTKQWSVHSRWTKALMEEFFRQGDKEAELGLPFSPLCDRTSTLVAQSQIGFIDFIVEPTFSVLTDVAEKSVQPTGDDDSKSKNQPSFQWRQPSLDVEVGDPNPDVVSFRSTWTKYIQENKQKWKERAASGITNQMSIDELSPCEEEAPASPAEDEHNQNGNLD
P2Y12, sequence (Q9H244 whole entry, species assumed): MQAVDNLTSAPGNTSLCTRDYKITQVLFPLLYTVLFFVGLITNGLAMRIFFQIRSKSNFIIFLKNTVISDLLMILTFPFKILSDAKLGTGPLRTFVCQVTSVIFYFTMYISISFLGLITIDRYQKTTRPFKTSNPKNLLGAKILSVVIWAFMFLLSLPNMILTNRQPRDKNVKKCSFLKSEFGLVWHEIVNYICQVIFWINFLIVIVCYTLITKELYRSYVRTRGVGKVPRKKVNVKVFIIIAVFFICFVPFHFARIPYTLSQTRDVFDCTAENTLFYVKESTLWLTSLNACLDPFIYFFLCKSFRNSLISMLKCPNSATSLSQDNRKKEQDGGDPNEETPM

Compound: CN1C(=O)c2c(nn(Cc3ccc(-c4cccc(F)n4)cc3)c2Nc2ccccc2)N2C1=N[C@@H]1CCC[C@@H]12 [Compound 214]
LPS-induced increase in expression of IL1β mRNA (BV2 cells [1]): significantly blunts; also recorded: suppresses
Ccl2 mRNA signal (BV2 cells [2]; [10]): significantly decreased
IL1β mRNA signal (BV2 cells [2]; [10]): trended downward
TNF mRNA signal (BV2 cells [2]; [10]): significantly decreased
LPS-induced expression of Ccl2 (BV2 cells [2]; 10 μM): significantly reduces
LPS-induced expression of IL1β (BV2 cells [2]; 10 μM): significantly reduces
LPS-induced expression of TNFα (BV2 cells [2]; 10 μM): significantly reduces
Chemokine (C—C) motif Ligand 2 expression (BV2 cells [2]): Down
Interleukin 1 beta expression (BV2 cells [2]): Down
Tumor necrosis factor expression (BV2 cells [2]): Down
ADP-induced elevation in cAMP (BV2 cells [3]; 30 min pretreatment, ADP for 5 minutes, ELISA): significantly augmented
ADP-induced P-VASP at serine 157 (BV2 cells [3]; 30 min pretreatment, ADP for 5 minutes, Western blot): significantly augmented
P-VASP level at baseline (BV2 cells [3]): no effect
cAMP level at baseline (BV2 cells [3]): no effect
striatal mRNA expression of Ccl2 (mouse striatum [4]; [11]): attenuates
striatal mRNA expression of TNF (mouse striatum [4]; [11]): attenuates
LPS-induced inflammatory gene expression changes in mice (mouse striatum [4]; 10 mg/kg i.p., 500 μg/kg LPS s.c., 2 hours, FIG. 6): prevents
striatal mRNA level of IL1-beta (mouse striatum [4]; [12]): trended to lower levels
striatal mRNA level of IL6 (mouse striatum [4]; [12]): trended to lower levels
Chemokine (C—C) motif Ligand 2 expression (mouse striatum [4]; [13]): Down
chemotaxis of BV2 cells toward ADP (BV2 cells [5]): inhibits
chemotaxis of BV2 cells toward ADP (BV2 cells [5]; listed as compound 214): reduced chemotaxis of BV2 cells toward 100 μM ADP in a dose-dependent manner
Oncostatin M expression (mouse striatum [6]): Down
VASP phosphorylation under basal conditions [7]: little effect
increase in VASP phosphorylation after ADP ([7]; 100 μM ADP for 5 mins): significantly enhanced
LPS-induced TNFα release (BV2 cells [8]): dose-dependent inhibition
percentage of responders (tumor volume <500 mm3) ([9]; 1 mg, 5 days a week starting at day 7, alone): increase
number of macrophages (CD45 positive) in the tumor microenvironment ([9]; alone): significantly reduced
number of macrophages (CD45 positive) in the tumor microenvironment ([9]; in combination with an anti-PD1 antibody): significantly reduced
percentage of responders (tumor volume <500 mm3) ([9]; in combination with 150 μg Anti-PD-1 (RMP1-14) on days 7, 11, 14, 17): increase

Compound: CSCCNc1nc(SCCC(F)(F)F)nc2c1ncn2[C@@H]1O[C@H](COP(=O)(O)OP(=O)(O)C(Cl)(Cl)P(=O)(O)O)[C@@H](O)[C@H]1O [AR-C 69931, reference compound]
chemotaxis of BV2 cells toward ADP (BV2 cells [5]): inhibited ADP induced migration

Compound: CC(C)Cn1c(=O)n(C)c(=O)c2[nH]cnc21 [IBMX, reference compound]
P-VASP level at baseline (BV2 cells [3]): did elevate
cAMP level at baseline (BV2 cells [3]): did elevate

Compound: CCCSc1nc(N)c2ncn([C@@H]3O[C@H](COP(=O)(O)OP(=O)(O)C(F)(F)P(=O)(O)O)[C@@H](O)[C@H]3O)c2n1 [AR-C 66096, reference compound]
pIC50 (P2Y12): 8.16
chemotaxis of BV2 cells toward ADP (BV2 cells [5]): inhibited ADP induced migration

pKi (bovine brain PDE1): 9.17
Compound: CN1C(=O)c2c(nn(Cc3ccc(C(F)(F)F)cc3)c2Nc2ccccc2)N2C1=N[C@@H]1CCC[C@@H]12 [Example 20 of U.S. Pat. No. 8,273,750, (6aR,9aS)-3-(phenylamino)-5,6a,7,8,9,9a-hexahydro-5-methyl-2-(4-(trifluoromethyl)-benzyl)-cyclopent[4,5]imidazo[1,2-a]pyrazolo[4,3-e]pyrimidin-4(2H)-one]
cGMP level induced in HL60 cells (HL60 cells; 100 nM ANP + 100 nM PDE1 inhibitor, compared with ANP alone or inhibitor alone): greater than that induced by either the ANP alone or the PDE1 inhibitor alone
effect of ionomycin on cGMP (HL60 cells; 5 μM ionomycin combined with ANP and the PDE1 inhibitor): only a weak cGMP lowering effect
cGMP level attained by co-treatment with ANP (HL60 cells; compared with co-treatment with ANP and SCH 51866 (5 μM)): much greater

Compound: COc1ccc(C2CNC(=O)C2)cc1OC1CCCC1 (centres unmarked) [rolipram, reference compound]
LPS-induced expression of Ccl2 (BV2 cells [2]; 10 μM): reducing
LPS-induced expression of IL1β (BV2 cells [2]; 10 μM): increasing
LPS-induced expression of TNFα (BV2 cells [2]; 10 μM): reducing
Chemokine (C—C) motif Ligand 2 expression (BV2 cells [2]): Down
Interleukin 1 beta expression (BV2 cells [2]): UP UP
Tumor necrosis factor expression (BV2 cells [2]): Down
Chemokine (C—C) motif Ligand 2 expression (mouse striatum [4]; [13]): Down
Interleukin 1 beta expression (mouse striatum [4]; [13]): UP-UP
Interleukin 6 expression (mouse striatum [4]; [13]): UP-UP
Tumor necrosis factor expression (mouse striatum [4]; [13]): Down
Oncostatin M expression (mouse striatum [6]): Down
